Where “and” joins values, the source holds several entries; their conditions need not be identical. Identical values can stand only once.
Experiments:
NCI-H69 SCLC tumors = experiment: H69 tumor DM-1 levels by LC/MS-MS; format: in vivo, mice; conditions: 1 mg/kg; 24 hour time point
Protocol: To examine the ability of conjugates of the present invention to accumulate in tumors, a murine cancer model was used. All mice were treated in accordance with the OLAW Public Health Service Policy on Human Care and Use of Laboratory Animals and the ILAR Guide for the Care and Use of Laboratory Animals. All in vivo studies were conducted following the protocols approved by the Blend Therapeutics Institutional Animal Care and Use Committee. Animals were inoculated with 2.5×10^6 NCI-H69 SCLC (small cell lung cancer) cells in 1:1 RPMI 1640 (Invitrogen, Carlsbad, Calif.)/Matrigel® (BD Biosciences, San Jose, Calif.) via subcutaneous injection to the right flank. Tumors were allowed to reach an approximate volume of ˜500 mm3. Animals were then randomized into treatment groups of 3 animals per time point and were dosed at 1 mg/kg (10% propylene glycol in water for injection for free conjugates, or 10% sucrose for nanoparticles), or 0.4 mg/kg for DM-1 (10% propylene glycol in water for injection). The 24 hour time point was used as a benchmark across conjugates.
Tumor DM-1 levels were determined by liquid chromatography mass spectrometry (LC/MS-MS). Four volumes of 5 mM 6-maleimidohexanoic acid to 1 part tumor v/w was added and homogenized for about 10-15 seconds with a handheld homogenizer. 10 μL of 500 mM Tris(2-carboxyethyl)phosphine was added to 100 uL of tumor homogenate, mixed well and incubated at room temperature for about 5-15 min. 200-300 uL of acetonitrile was used to precipitate proteins in tumor homogenate, samples were centrifuged for 5 min, and supernatant was injected onto LC/MS-MS system for DM-1 analysis.

SSTR2 [1] = target: T1, SSTR2 (Homo sapiens, UniProt P30874); experiment: SSTR2 receptor internalization in H524-MD tumor xenograft (IHC); format: in vivo; parameters: expressed in transfected cells
Protocol: SSTR2 receptor internalization was studied using Conjugate 57 in a highly expressing SSTR2 positive (SSTR2+) tumor xenograft: H524_MD tumor xenograft. Vehicle (0.1% Solutol/5% Mannitol), Conjugate 57 at 2 mg/kg, scrambled control (BT-984) at 2 mg/kg, and Octreotide at 1.4 mg/kg (ligand alone) were given to SSTR2+H524-MD tumor xenografts (n=3/group). Timepoints—0 hr (Vehicle), 15 mins, 1 hr, 4 hr, 24 hr and 72 hrs. SSTR2 scoring was done by immunohistochemistry (IHC) staining.

[2] = Single dose exploratory toxicity study; format: in vivo, SD female rat
Protocol: Single dose exploratory toxicity studies in SD female rat (dose 0.5 mg/kg to 1.5 mg/kg) for 7-10 days were carried out. Clinical observations, body weight, clinical blood chemistry, histopathology, and complete blood counts were assessed. In the 10-day study, DM1 (0.4 mg/kg) was compared to Conjugate 57 at an equivalent dose of DM1 (1.0 mg/kg of conjugate) and at a 50% higher dose (1.5 mg/kg of conjugate).
Decreased white blood cell (WBC) count is a known dose limiting toxicity of DM1. WBC count was tracked in all groups.
Liver toxicity is also a know dose limiting toxicity of DM1. Alanine transaminase (ALT) and aspartate aminotransferase (AST) are markers of liver toxicity and were measured in all groups.

Caco-2 monolayers = experiment: Membrane permeability in Caco-2 monolayers; format: in vitro ADME; conditions: Test Conc. 10 uM
Protocol: (§1) Membrane permeability of Conjugate 57 was measured in Caco-2 monolayers. The apparent permeability (Papp) was determined to be very low in both the apical to basolateral direction and the basolateral to apical direction.

[3] = Membrane permeability in Caco-2 monolayers; format: in vitro ADME; conditions: human, Caco-2; Test Conc. 10 uM
Protocol: as §1

SSTR2 [4] = target: T1, SSTR2; experiment: Radioligand-receptor binding assay, [125I] labeled somatostatin; parameters: host or cells: CHO-K1
Protocol: Two conjugates were assessed in an in vitro assay evaluating binding to the somatostatin receptor 2 (SSTR2). A radioligand-receptor binding assay was conducted at Eurofins Panlabs (Taiwan) to determine the affinity of conjugates described herein to the SSTR2. The assay measures binding of radiolabeled ligand, [^125I] labeled somatostatin, to human SSTR2 using membrane preparations from SSTR2 expressing CHO-K1 cells. Membranes were incubated with radiolabeled somatostatin (0.03 nM) in the presence of conjugate/compound starting at a dose of 10 uM using 6× serial dilutions to obtain a 10-pt curve. After a four hour incubation, membranes were filtered and washed 3× and counted to determine the remaining[^125 I] somatostatin bound to the receptor. IC50 values were determined by a non-linear, least squares regression analysis using MathIQ™ (ID Business Solutions Ltd., UK). The Ki values were calculated using the equation of Cheng and Prusoff (Cheng and Prusoff, Biochem. Pharmacol. 22:3099-3108, 1973) using the observed IC50 of the tested conjugate/compound, the concentration of radioligand employed in the assay, and the historical values for the KD of the ligand obtained at Eurofins.

HCC-33 (SCLC) xenografts = experiment: HCC-33 (SCLC) xenografts, tumor growth inhibition (Example 13); format: in vivo; conditions: for TGI % Day 5 / TGI % Day 8 / TGI % Day 12 / TGI % Day 16 / TGI % Day 20 / TGI % Day 23 / TGI % Day 27 / TGI % Day 30: dosed on Day 1 and Day 8
Protocol: The efficacy of Conjugate 57 was studied with HCC-33 (SCLC) xenografts. Conjugate 57 was dosed on Day 1 and Day 8.

[5] = 2 mg/kg, H524-MD tumor xenografts
[6] = both groups (2 mg/kg and 1 mg/kg)

T1 sequence (P30874 whole entry): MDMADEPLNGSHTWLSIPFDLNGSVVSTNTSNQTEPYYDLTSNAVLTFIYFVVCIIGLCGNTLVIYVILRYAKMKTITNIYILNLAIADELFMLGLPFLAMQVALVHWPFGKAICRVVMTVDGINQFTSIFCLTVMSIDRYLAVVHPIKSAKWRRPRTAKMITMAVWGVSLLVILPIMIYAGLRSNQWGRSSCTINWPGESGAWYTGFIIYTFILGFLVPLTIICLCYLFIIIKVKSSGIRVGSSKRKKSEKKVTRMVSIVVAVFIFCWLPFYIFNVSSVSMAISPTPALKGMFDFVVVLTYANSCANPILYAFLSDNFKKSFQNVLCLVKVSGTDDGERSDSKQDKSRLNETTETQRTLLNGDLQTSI

## COc1cc2cc(c1Cl)N(C)C(=O)C[C@H](OC(=O)[C@H](C)N(C)C(=O)CCSSC[C@H](NC(=O)[C@@H]1CSSC[C@H](NC(=O)[C@H](N)Cc3ccccc3)C(=O)N[C@@H](Cc3ccc(O)cc3)C(=O)N[C@H](Cc3c[nH]c4ccccc34)C(=O)N[C@@H](CCCCN)C(=O)N[C@@H]([C@@H](C)O)C(=O)N1)C(N)=O)[C@]1(C)O[C@H]1[C@H](C)[C@@H]1C[C@@](O)(NC(=O)O1)[C@H](OC)/C=C/C=C(\C)C2 [Conjugate 57]
NCI-H69 SCLC tumors
  H69 tumor DM-1 levels: 243 nM
SSTR2 [1]; [5]
  SSTR2 internalization distribution of staining: significantly different results from BT-984 and naïve at 4 hr, 24 hr, and 72 hours
  SSTR2 receptor internalization intensity of staining: significantly different results from scrambled peptide version of compound 57 (BT-984) and naïve at 1 hr, 4 hr, and 72 hours
SSTR2 [1]; Conjugate 57 2 mg/kg, Octreotide 1.4 mg/kg
  SSTR2 internalization compared with octreotide: caused more SSTR2 internalization than octreotide alone
[2]; 1.0 mg/kg
  AST and ALT: no effects on AST and ALT
  Day 5 weight change (%): −0.73%
  Day 10 weight change (%): +1.8%
[2]; 1.0 mg/kg and […]
  complete blood count (CBC) and WBC count: no significant changes in complete blood count (CBC) and WBC count
[2]; 1.0 and […] versus DM1 0.4 mg/kg, 10-day study
  tolerability: significantly improved tolerability versus DM1
Caco-2 monolayers
  Mean A→B Papp: very low
  Mean B→A Papp: very low
[3]
  Papp A→B at 10 uM: 0.018 ×10⁻⁶ cm/s
  Papp B→A at 10 uM: 0.094 ×10⁻⁶ cm/s
SSTR2 [4]
  SSTR affinity of Conjugate 57 relative to Conjugate 120: 100,00 fold
SSTR2 [4]; Conjugate 57 Ki (nM), SSTR2
  Ki: 0.018 nM and 0.0177 nM
SSTR2 [4]; Ki (nm), SSTR affinity, Example 8
  Ki: 0.017 nM
SSTR2 [4]; SSTR2 Ki (nM), membranes from SSTR2 expressing CHO-K1 cells
  Ki: 0.018 nM
HCC-33 (SCLC) xenografts; 1 mg/kg
  TGI % Day 5: 46.2%
  TGI % Day 8: 71.3%
  TGI % Day 12: 87.2%
  TGI % Day 16: 96.3%
  TGI % Day 20: 98.1%
  TGI % Day 23: 99.2%
  TGI % Day 27: 99.6%
  TGI % Day 30: 99.6%
HCC-33 (SCLC) xenografts; 2 mg/kg
  TGI % Day 5: 47%
  TGI % Day 8: 74.8%
  TGI % Day 12: 88.2%
  TGI % Day 16: 96.2%
  TGI % Day 20: 98.3%
  TGI % Day 23: 99.1%
  TGI % Day 27: 99.5%
  TGI % Day 30: 99.9%
HCC-33 (SCLC) xenografts; [6]
  Body weights: increased
  Tumor regression: ~100%
